IC50 and Ki data for 19 compounds are collected here from ChEMBL document CHEMBL1909046, “DrugMatrix in vitro pharmacology data”.

pIC50, pKi: −log10 of the molar value.

For assay [1], the target named is Beta-3 adrenergic receptor (Homo sapiens, UniProt P13945). The experiment in a line: DRUGMATRIX: Adrenergic beta3 radioligand binding (ligand: [125I] Cyanopindolol). Type of assay: cell membranes, HEK293, Membrane. The conditions noted are these: Not Active = under 50% inhibition at 10 µM; for IC50: hek293.
Beta-3 adrenergic receptor, sequence (P13945 whole entry): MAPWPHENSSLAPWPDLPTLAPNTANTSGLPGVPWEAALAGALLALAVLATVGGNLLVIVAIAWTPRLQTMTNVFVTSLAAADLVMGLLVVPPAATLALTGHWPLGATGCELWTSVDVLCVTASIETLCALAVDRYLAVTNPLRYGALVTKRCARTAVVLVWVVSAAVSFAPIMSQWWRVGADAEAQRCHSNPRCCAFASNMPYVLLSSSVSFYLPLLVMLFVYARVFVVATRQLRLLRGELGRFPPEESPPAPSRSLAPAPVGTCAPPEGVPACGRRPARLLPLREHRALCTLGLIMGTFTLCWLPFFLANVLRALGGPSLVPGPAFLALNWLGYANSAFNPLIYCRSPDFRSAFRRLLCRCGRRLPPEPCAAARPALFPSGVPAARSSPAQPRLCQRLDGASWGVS
Assay [2] can be described thus: DRUGMATRIX: Glutamate, AMPA radioligand binding (ligand: [3H] AMPA). The class given is cell membranes, Rattus norvegicus, Wistar, Cerebral cortex, Membrane. To be noted: Not Active = under 50% inhibition at 10 µM.
In assay [3] the target is T1, 3-hydroxy-3-methylglutaryl-coenzyme A reductase (Homo sapiens, UniProt P04035).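 Also: enzyme inhibition assay of HMG-CoA reductase using radiolabeled [14C]HMG-CoA as substrate; in other assays of this panel Not Active means under 50% inhibition at 10 µM.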
T1 sequence (P04035 whole entry): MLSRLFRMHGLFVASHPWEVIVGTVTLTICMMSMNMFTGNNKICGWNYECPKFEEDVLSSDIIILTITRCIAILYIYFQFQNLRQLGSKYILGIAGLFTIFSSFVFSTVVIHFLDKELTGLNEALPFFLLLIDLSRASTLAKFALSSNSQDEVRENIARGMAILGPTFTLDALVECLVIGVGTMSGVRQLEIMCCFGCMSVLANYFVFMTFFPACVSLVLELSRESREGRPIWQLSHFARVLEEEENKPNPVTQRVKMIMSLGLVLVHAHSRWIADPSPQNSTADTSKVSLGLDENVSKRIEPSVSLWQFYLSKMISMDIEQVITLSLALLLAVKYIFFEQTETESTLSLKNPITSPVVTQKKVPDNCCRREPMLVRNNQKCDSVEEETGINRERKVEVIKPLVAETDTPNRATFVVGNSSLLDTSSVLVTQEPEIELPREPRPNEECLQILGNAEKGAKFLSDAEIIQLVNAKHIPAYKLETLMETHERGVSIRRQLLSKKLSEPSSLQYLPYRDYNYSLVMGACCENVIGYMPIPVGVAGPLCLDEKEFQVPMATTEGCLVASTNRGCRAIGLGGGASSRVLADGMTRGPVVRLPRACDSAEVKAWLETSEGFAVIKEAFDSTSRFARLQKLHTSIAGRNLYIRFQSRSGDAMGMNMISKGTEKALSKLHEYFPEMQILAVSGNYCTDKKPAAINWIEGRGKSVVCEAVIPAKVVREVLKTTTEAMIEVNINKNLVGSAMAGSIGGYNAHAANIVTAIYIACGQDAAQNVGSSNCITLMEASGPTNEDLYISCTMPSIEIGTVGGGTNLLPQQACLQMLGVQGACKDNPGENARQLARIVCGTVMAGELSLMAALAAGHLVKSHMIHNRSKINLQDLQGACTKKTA
The arrangement: species or system Escherichia coli.

Assay [4] in a line: DRUGMATRIX: Potassium Channel [KATP] radioligand binding (ligand: [3H] Glyburide). The class given is cell membranes, Membrane. To be noted: hit-t15; Not Active = under 50% inhibition at 10 µM.
Assay [5] addresses T2, Caspase-1 (Homo sapiens, UniProt P29466).
T2 sequence (P29466 whole entry): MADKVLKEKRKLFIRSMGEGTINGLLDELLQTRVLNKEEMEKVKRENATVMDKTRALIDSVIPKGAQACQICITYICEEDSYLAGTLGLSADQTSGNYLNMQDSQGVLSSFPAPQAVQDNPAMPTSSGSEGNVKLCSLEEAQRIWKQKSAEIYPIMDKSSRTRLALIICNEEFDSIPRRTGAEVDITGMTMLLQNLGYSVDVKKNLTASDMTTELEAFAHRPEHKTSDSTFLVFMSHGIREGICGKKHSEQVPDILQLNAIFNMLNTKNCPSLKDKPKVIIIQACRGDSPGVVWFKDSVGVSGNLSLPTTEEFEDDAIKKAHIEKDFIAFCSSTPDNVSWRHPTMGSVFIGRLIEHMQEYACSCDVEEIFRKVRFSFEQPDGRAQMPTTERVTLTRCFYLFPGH
The arrangement: species or system Escherichia coli.

Assay [6] deals with Epidermal growth factor receptor (Homo sapiens, UniProt P00533). Description: DRUGMATRIX: Protein Tyrosine Kinase, EGF Receptor enzyme inhibition (substrate: Poly(Glu:Tyr)). The class given is cell-based, Insect cells. The conditions noted are these: Not Active = under 50% inhibition at 10 µM; for IC50: insect cells.
Epidermal growth factor receptor, sequence (P00533 whole entry): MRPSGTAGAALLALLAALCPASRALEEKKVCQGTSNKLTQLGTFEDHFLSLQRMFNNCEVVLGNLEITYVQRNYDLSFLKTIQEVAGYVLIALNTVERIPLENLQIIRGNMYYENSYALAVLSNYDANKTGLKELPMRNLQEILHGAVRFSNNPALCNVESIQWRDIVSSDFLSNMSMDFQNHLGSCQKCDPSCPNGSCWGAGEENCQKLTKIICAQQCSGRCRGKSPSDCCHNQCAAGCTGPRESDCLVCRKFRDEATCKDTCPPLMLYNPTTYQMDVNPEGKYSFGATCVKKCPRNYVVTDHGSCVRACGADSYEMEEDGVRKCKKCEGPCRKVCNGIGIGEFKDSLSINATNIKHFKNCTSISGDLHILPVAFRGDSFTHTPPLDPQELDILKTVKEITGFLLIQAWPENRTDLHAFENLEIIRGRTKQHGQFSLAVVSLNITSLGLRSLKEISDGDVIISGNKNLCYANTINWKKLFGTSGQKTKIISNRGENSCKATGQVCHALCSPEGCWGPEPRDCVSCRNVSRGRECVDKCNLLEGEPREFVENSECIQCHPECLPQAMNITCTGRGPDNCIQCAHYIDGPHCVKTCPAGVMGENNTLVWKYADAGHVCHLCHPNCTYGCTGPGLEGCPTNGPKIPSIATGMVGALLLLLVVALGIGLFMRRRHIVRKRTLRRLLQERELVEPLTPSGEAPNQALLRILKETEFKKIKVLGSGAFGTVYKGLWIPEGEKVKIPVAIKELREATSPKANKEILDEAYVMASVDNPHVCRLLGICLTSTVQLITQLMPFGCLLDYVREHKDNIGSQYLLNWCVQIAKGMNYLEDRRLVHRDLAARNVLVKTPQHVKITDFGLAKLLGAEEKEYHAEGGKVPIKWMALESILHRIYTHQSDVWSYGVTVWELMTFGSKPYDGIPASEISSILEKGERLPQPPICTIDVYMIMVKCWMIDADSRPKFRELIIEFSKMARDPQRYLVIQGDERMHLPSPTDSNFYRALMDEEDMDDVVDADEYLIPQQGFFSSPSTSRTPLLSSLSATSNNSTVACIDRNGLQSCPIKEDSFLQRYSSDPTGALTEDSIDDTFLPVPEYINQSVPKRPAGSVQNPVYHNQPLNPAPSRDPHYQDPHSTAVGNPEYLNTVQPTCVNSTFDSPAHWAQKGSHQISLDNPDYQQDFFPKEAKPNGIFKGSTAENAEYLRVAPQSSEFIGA
Assay [7] deals with Tyrosine-protein kinase Lck (Homo sapiens, UniProt P06239). The experiment in a line: DRUGMATRIX: Protein Tyrosine Kinase, LCK enzyme inhibition (substrate: Poly(Glu:Tyr)). The class given is cell-based, Insect cells. The conditions noted are these: insect cells; Not Active = under 50% inhibition at 10 µM.
Tyrosine-protein kinase Lck, sequence (P06239 whole entry): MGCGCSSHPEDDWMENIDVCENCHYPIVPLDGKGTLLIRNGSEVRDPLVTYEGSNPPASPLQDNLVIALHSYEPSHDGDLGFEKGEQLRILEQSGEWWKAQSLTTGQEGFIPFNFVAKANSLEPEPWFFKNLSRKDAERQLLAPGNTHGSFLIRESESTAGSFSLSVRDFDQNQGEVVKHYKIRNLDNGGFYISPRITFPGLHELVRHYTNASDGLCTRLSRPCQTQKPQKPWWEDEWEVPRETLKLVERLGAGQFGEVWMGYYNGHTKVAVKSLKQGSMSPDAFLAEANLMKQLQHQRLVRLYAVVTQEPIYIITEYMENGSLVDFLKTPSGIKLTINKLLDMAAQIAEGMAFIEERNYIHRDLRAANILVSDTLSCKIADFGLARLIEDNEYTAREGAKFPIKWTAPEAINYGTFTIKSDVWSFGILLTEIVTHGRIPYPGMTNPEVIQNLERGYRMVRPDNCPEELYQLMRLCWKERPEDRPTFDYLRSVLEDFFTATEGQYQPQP

Consider `Cc1cnc(NC(=O)C2=C(O)c3ccccc3S(=O)(=O)N2C)s1` [MELOXICAM], for which the IC50 entry in assay [1], in assay [2], in assay [3], in assay [4], in assay [5] and in assay [6] was “Not Active” throughout. Further, in assay [7], the IC50 entry was “Not Active”. The Ki result in assay [2] and in assay [4] was “Not Active” throughout.
The term pIC50 denotes the IC50 on a negative log10 scale, so that one unit is a factor of ten. As to `Nc1nc(N)c2nc(-c3ccccc3)c(N)nc2n1`, the IC50 result in assay [1], in assay [2], in assay [3], in assay [4], in assay [6] and in assay [7] was “Not Active” in each case. In addition, the Ki entry in assay [2] and in assay [4] was “Not Active” each time. In addition, the pIC50 in assay [5] (read-out: IC50) was 5.44.
As usually defined, the pKi is −log10 of the Ki, conventionally taken in molar units. `CC(C)(C)NC[C@H](O)COc1cccc2c1CCCC2=O` [LEVOBUNOLOL]: in assay [1] (read-out: IC50), the pIC50 was 6.47. Further, the pKi in assay [1] (read-out: Ki) is 6.59. Further, the IC50 result in assay [2], in assay [3], in assay [4], in assay [5], in assay [6] and in assay [7] was “Not Active” in each case. Besides, the Ki entry in assay [2] and in assay [4] was “Not Active” each time.
For the compound `Cc1[nH]c(=O)c(C#N)cc1-c1ccncc1` [MILRINONE], the IC50 entry in assay [1], in assay [2], in assay [3], in assay [4], in assay [5] and in assay [6] was “Not Active” in each case. For the same compound, the IC50 result in assay [7] was “Not Active”. The Ki entry in assay [2] and in assay [4] was “Not Active” throughout.
Regarding `Cc1cn([C@H]2C=C[C@@H](CO)O2)c(=O)[nH]c1=O` [STAVUDINE], the IC50 result in assay [1], in assay [2], in assay [3], in assay [4], in assay [5] and in assay [6] was “Not Active” throughout. In assay [7], the IC50 entry was “Not Active”. The Ki result in assay [2] and in assay [4] was “Not Active” in each case.
With `CCOc1cc(N)c(Cl)cc1C(=O)NCC1CN(Cc2ccc(F)cc2)CCO1` (stereo not drawn) [MOSAPRIDE], the IC50 entry in assay [1], in assay [2], in assay [3], in assay [4], in assay [5] and in assay [6] was “Not Active” throughout. Further, the IC50 entry in assay [7] was “Not Active”. The Ki entry in assay [2] and in assay [4] was “Not Active” each time.
Consider `C#C[C@]1(O)CC[C@H]2[C@@H]3[C@H](C)CC4=C(CCC(=O)C4)[C@H]3CC[C@@]21C` [TIBOLONE], for which the IC50 entry in assay [1], in assay [2], in assay [3], in assay [4], in assay [5] and in assay [6] was “Not Active” throughout. The IC50 result in assay [7] is “Not Active”. The Ki result in assay [2] and in assay [4] was “Not Active” each time.
As to `CC[C@H](C)[C@@H](CO[C@@H](Cc1ccccc1)C(=O)N[C@@H](CCS(C)(=O)=O)C(=O)OC(C)C)NC[C@@H](N)CS`, the IC50 entry in assay [1], in assay [2], in assay [3], in assay [4], in assay [5] and in assay [7] was “Not Active” throughout. The Ki result in assay [2] and in assay [4] was “Not Active” in each case. Besides, the pIC50 in assay [6] (read-out: IC50) was 5.49.
For the compound `OC[C@@H](O)[C@@H](O)[C@H](O)[C@H](O)CO` [MANNITOL], the IC50 result in assay [1], in assay [2], in assay [3], in assay [4], in assay [5] and in assay [6] was “Not Active” throughout. For the same compound, in assay [7], the IC50 entry is “Not Active”. The Ki result in assay [2] and in assay [4] was “Not Active” throughout.
Regarding `O=[As][O-].[Na+]` [SODIUM ARSENITE], the IC50 result in assay [1], in assay [2], in assay [3], in assay [4], in assay [5] and in assay [6] was “Not Active” each time. Also, the IC50 result in assay [7] was “Not Active”. The Ki result in assay [2] and in assay [4] was “Not Active” throughout.
On to `Cc1cc2c(s1)Nc1ccccc1N=C2N1CCN(C)CC1` [OLANZAPINE], for which the IC50 result in assay [1], in assay [3], in assay [5], in assay [6] and in assay [7] was “Not Active” in each case.
Regarding `Cc1ccc(Cl)c(Nc2ccccc2C(=O)O)c1Cl` [MECLOFENAMIC ACID], the IC50 result in assay [1], in assay [2], in assay [3], in assay [4], in assay [5] and in assay [6] was “Not Active” each time. In assay [7], the IC50 result is listed as “Not Active”. In addition, the Ki result in assay [2] and in assay [4] was “Not Active” each time.
Turning to `CCOC(=O)C1=C(C)NC(C)=C(C(=O)OCC)C1c1ccccc1/C=C/C(=O)OC(C)(C)C` [LACIDIPINE], the IC50 result in assay [1], in assay [2], in assay [3], in assay [4], in assay [5] and in assay [6] was “Not Active” each time. Moreover, the IC50 result in assay [7] is “Not Active”. Besides, the Ki entry in assay [2] and in assay [4] was “Not Active” throughout.
Take `CNCCCC12CCC(c3ccccc31)c1ccccc12` [MAPROTILINE]: the IC50 result in assay [1], in assay [3], in assay [5], in assay [6] and in assay [7] was “Not Active” each time.
For `O=C(c1ccccc1)c1ccc2n1CCC2C(=O)O` (stereo not drawn) [KETOROLAC], the IC50 result in assay [1], in assay [2], in assay [3], in assay [4], in assay [5] and in assay [6] was “Not Active” throughout. For the same compound, the IC50 result in assay [7] is “Not Active”. The Ki entry in assay [2] and in assay [4] was “Not Active” throughout.
As to `CCN(CC)N=O` [N-NITROSODIETHYLAMINE], the IC50 result in assay [1], in assay [2], in assay [3], in assay [4], in assay [5] and in assay [6] was “Not Active” each time. Also, the IC50 result in assay [7] was “Not Active”. Further, the Ki result in assay [2] and in assay [4] was “Not Active” throughout.
`CCC(C)(C)C(=O)O[C@H]1C[C@@H](C)C=C2C=C[C@H](C)[C@H](CC[C@@H]3C[C@@H](O)CC(=O)O3)[C@H]21` [SIMVASTATIN]: the IC50 result in assay [1], in assay [2], in assay [4], in assay [5], in assay [6] and in assay [7] was “Not Active” in each case. In addition, the Ki result in assay [2] and in assay [4] was “Not Active” in each case.
`COC(=O)Nc1nc2ccc(C(=O)c3ccccc3)cc2[nH]1` [MEBENDAZOLE]: the IC50 result in assay [1], in assay [2], in assay [3], in assay [4], in assay [5] and in assay [7] was “Not Active” throughout. Besides, the Ki entry in assay [2] and in assay [4] was “Not Active” each time.
`CN(C)CCC=C1c2ccccc2COc2ccccc21` [DOXEPIN]: the IC50 entry in assay [1], in assay [3], in assay [5] and in assay [6] was “Not Active” throughout. Besides, the Ki entry in assay [7] is given as “Not Active”.
